From PubChem BioAssay AID1745844 (Carcinogenic Potency Database (CPDB), 2022)
Values joined by “and” are separate entries in the source; they are usually repeats but may differ in a detail not shown here. Equal entries are not always repeated. Active and inactive are the calls of the source. The rule behind the calls is not given here.

System: rodent lifetime carcinogenesis bioassay, tumor incidence TD50
Assay: chronic cancer bioassays in animals – CPDB, compiled studies (AID 1745844)
[1] = rat, strain Sprague-Dawley, females, by gavage, site: liver, lesion: hepatocellular carcinoma, dosed 52 weeks, study length 65 weeks

CC/C(=C(\c1ccccc1)c1ccc(OCCN(C)C)cc1)c1ccccc1
TD50 (mouse, strain AP Alderly Park, females, several routes, site: ovary, lesion: granulosa-cell adenoma, dosed 65 weeks, study length 65 weeks): 3 mg/kg/day | TD50 (mouse, strain AP Alderly Park, males, several routes, site: testis, lesion: interstitial-cell adenoma, dosed 65 weeks, study length 65 weeks): 8.18 mg/kg/day | TD50 (mouse, strain AP Alderly Park, males, several routes, site: testis, lesion: interstitial-cell tumor, dosed 56 weeks, study length 56 weeks): 9.8 mg/kg/day | TD50 (mouse, strain B6C3F1, females, in feed, site: liver, lesion: hepatocellular adenoma, dosed 104 weeks, study length 104 weeks): 101 mg/kg/day (inactive) | carcinogen call (mouse, strain B6C3F1, females, in feed, site: lung, lesion: alveolar-cell carcinoma, dosed 104 weeks, study length 104 weeks): negative (inactive) | carcinogen call (mouse, strain B6C3F1, females, in feed, site: uterus, lesion: leiomyoma, dosed 104 weeks, study length 104 weeks): negative (inactive) | carcinogen call (mouse, strain C57BL/6, females, in feed, site: liver, lesion: hepatocellular carcinoma, dosed 52 weeks, study length 52 weeks): negative (inactive) | carcinogen call (mouse, strain DBA/2, females, in feed, site: liver, lesion: hepatocellular carcinoma, dosed 52 weeks, study length 52 weeks): negative (inactive) | TD50 (rat, strain Alpk:APfSD, females, by gavage, site: liver, lesion: biliary cystadenoma, dosed 88 weeks, study length 107 weeks): 706 mg/kg/day | TD50 (rat, strain Alpk:APfSD, females, by gavage, site: liver, lesion: cholangioma, dosed 88 weeks, study length 107 weeks): 2260 mg/kg/day | TD50 (rat, strain Alpk:APfSD, females, by gavage, site: liver, lesion: hepatocellular adenoma, dosed 88 weeks, study length 107 weeks): 135 mg/kg/day | TD50 (rat, strain Alpk:APfSD, females, by gavage, site: liver, lesion: hepatocellular carcinoma, dosed 88 weeks, study length 107 weeks): 17 mg/kg/day | TD50 (rat, strain Alpk:APfSD, females, by gavage, site: liver, lesion: hepatocholangiocarcinoma, dosed 88 weeks, study length 107 weeks): 241 mg/kg/day | TD50 (rat, strain Alpk:APfSD, males, by gavage, site: liver, lesion: biliary cystadenoma, dosed 88 weeks, study length 107 weeks): 1100 mg/kg/day | TD50 (rat, strain Alpk:APfSD, males, by gavage, site: liver, lesion: hepatocellular adenoma, dosed 88 weeks, study length 107 weeks): 47.9 mg/kg/day | TD50 (rat, strain Alpk:APfSD, males, by gavage, site: liver, lesion: hepatocellular carcinoma, dosed 88 weeks, study length 107 weeks): 18.7 mg/kg/day | TD50 (rat, strain Alpk:APfSD, males, by gavage, site: liver, lesion: hepatocholangiocarcinoma, dosed 88 weeks, study length 107 weeks): 306 mg/kg/day | TD50 (rat, strain Charles River CD (Sprague-Dawley), females, by gavage, site: liver, lesion: hepatocellular adenoma, dosed 51 weeks, study length 65 weeks): 7.77 mg/kg/day | TD50 (rat, strain Charles River CD (Sprague-Dawley), females, by gavage, site: liver, lesion: hepatocellular adenoma, dosed 52 weeks, study length 65 weeks): 4.35 mg/kg/day | TD50 (rat, strain Charles River CD (Sprague-Dawley), females, by gavage, site: liver, lesion: hepatocellular carcinoma, dosed 51 weeks, study length 65 weeks): 7.77 mg/kg/day | TD50 (rat, strain Charles River CD (Sprague-Dawley), females, by gavage, site: liver, lesion: hepatocellular carcinoma, dosed 52 weeks, study length 52 weeks): 2.12 mg/kg/day and 10.3 mg/kg/day | TD50 (rat, strain Charles River CD (Sprague-Dawley), females, by gavage, site: liver, lesion: hepatocellular carcinoma, dosed 52 weeks, study length 65 weeks): 4.62 mg/kg/day | TD50 (rat, strain Charles River CD (Sprague-Dawley), females, by gavage, site: liver, lesion: several types, types named in the paper, dosed 52 weeks, study length 52 weeks): 1.44 mg/kg/day | TD50 (rat, strain Charles River CD (Sprague-Dawley), females, by gavage, site: liver, lesion: several types, types named in the paper, dosed 52 weeks, study length 65 weeks): 3.86 mg/kg/day | TD50 (rat, strain Fischer 344/Tox, females, in feed, site: liver, lesion: hepatocellular carcinoma, dosed 86 weeks, study length 86 weeks): 4.18 mg/kg/day | TD50 (rat, strain Lewis, females, in feed, site: liver, lesion: hepatocellular carcinoma, dosed 48 weeks, study length 48 weeks): 1.38 mg/kg/day | TD50 (rat, strain Sprague-Dawley, females, by gavage, site: any site (literature study), lesion: malignant tumor, dosed 167 weeks, study length 167 weeks): 88.7 mg/kg/day | TD50 (rat, strain Sprague-Dawley, females, by gavage, site: liver, lesion: hepatocellular adenoma, dosed 167 weeks, study length 167 weeks): 497 mg/kg/day | TD50 (rat, strain Sprague-Dawley, females, by gavage, site: liver, lesion: hepatocellular carcinoma, dosed 52 weeks, study length 52 weeks): 11.8 mg/kg/day and 7.56 mg/kg/day and 4.79 mg/kg/day | TD50 [1]: 18.9 mg/kg/day and 6 mg/kg/day | carcinogen call [1]: positive | TD50 (rat, strain Sprague-Dawley, females, by gavage, site: liver, lesion: hepatocellular carcinoma, dosed 167 weeks, study length 167 weeks): 164 mg/kg/day | carcinogen call (rat, strain Sprague-Dawley, females, by gavage, site: liver, lesion: several types, types named in the paper, dosed 52 weeks, study length 52 weeks): positive | TD50 (rat, strain Sprague-Dawley, females, by gavage, site: uterus, lesion: fibroma, dosed 167 weeks, study length 167 weeks): 247 mg/kg/day | TD50 (rat, strain Sprague-Dawley, females, by gavage, site: uterus, lesion: sarcoma, dosed 167 weeks, study length 167 weeks): 487 mg/kg/day | TD50 (rat, strain Sprague-Dawley, females, by gavage, site: uterus, lesion: squamous-cell carcinoma, dosed 167 weeks, study length 167 weeks): 497 mg/kg/day | TD50 (rat, strain Sprague-Dawley, females, by gavage, site: vagina, lesion: squamous-cell carcinoma, dosed 167 weeks, study length 167 weeks): 497 mg/kg/day | TD50 (rat, strain Sprague-Dawley, males, by gavage, site: any site (literature study), lesion: malignant tumor, dosed 167 weeks, study length 167 weeks): 187 mg/kg/day | TD50 (rat, strain Sprague-Dawley, males, by gavage, site: liver, lesion: hepatocellular adenoma, dosed 167 weeks, study length 167 weeks): 497 mg/kg/day | TD50 (rat, strain Sprague-Dawley, males, by gavage, site: liver, lesion: hepatocellular carcinoma, dosed 167 weeks, study length 167 weeks): 247 mg/kg/day | TD50 (rat, strain Sprague-Dawley, males, by gavage, site: mammary tissue, wider than the gland, lesion: adenocarcinoma, dosed 167 weeks, study length 167 weeks): 247 mg/kg/day | TD50 (rat, strain Sprague-Dawley, males, by gavage, site: mammary tissue, wider than the gland, lesion: benign tumor, dosed 167 weeks, study length 167 weeks): 96.4 mg/kg/day | TD50 (rat, strain Wistar/LAC-P, females, in feed, site: liver, lesion: hepatocellular carcinoma, dosed 49 weeks, study length 49 weeks): 1.36 mg/kg/day

CN1CCC[C@H]1c1cccnc1
carcinogen call (mouse, strain Swiss albino, females, in drinking water, site: liver, lesion: several types, types named in the paper, dosed 121 weeks, study length 123 weeks): negative (inactive) | TD50 (mouse, strain Swiss albino, females, in drinking water, site: lung, lesion: one or several types, types not named, dosed 121 weeks, study length 123 weeks): 11100 mg/kg/day (inactive) | carcinogen call (mouse, strain Swiss albino, males, in drinking water, site: liver, lesion: several types, types named in the paper, dosed 114 weeks, study length 120 weeks): negative (inactive) | carcinogen call (mouse, strain Swiss albino, males, in drinking water, site: lung, lesion: one or several types, types not named, dosed 114 weeks, study length 120 weeks): negative (inactive) | carcinogen call (rat, strain Sprague-Dawley, females, i.p., site: any site (literature study), lesion: malignant tumor, dosed 104 weeks, study length 104 weeks): negative (inactive) | TD50 (rat, strain Sprague-Dawley, males, i.p., site: any site (literature study), lesion: malignant tumor, dosed 104 weeks, study length 104 weeks): 6.38 mg/kg/day (inactive)

S=C=NCCCCCCc1ccccc1
carcinogen call (rat, strain Fischer 344, males, in feed, site: colon, lesion: one or several types, types not named, dosed 55 weeks, study length 55 weeks): negative (inactive) | carcinogen call (rat, strain Fischer 344, males, in feed, site: liver, lesion: hepatocellular adenoma, dosed 112 weeks, study length 112 weeks): negative (inactive) | carcinogen call (rat, strain Fischer 344, males, in feed, site: liver, lesion: hepatocellular carcinoma, dosed 112 weeks, study length 112 weeks): negative (inactive) | carcinogen call (rat, strain Fischer 344, males, in feed, site: pancreas, exocrine, lesion: acinar-cell adenoma, dosed 112 weeks, study length 112 weeks): negative (inactive) | carcinogen call (rat, strain Fischer 344, males, in feed, site: pancreatic islets, lesion: islet-cell adenoma, dosed 112 weeks, study length 112 weeks): negative (inactive)

NC(=O)OCC(COC(N)=O)c1ccccc1
TD50 (mouse, strain Charles River CD1, females, in feed, site: liver, lesion: hepatocellular adenoma, dosed 92 weeks, study length 92 weeks): 10400 mg/kg/day | TD50 (mouse, strain Charles River CD1, females, in feed, site: liver, lesion: several types, types named in the paper, dosed 92 weeks, study length 92 weeks): 10200 mg/kg/day | TD50 (mouse, strain Charles River CD1, males, in feed, site: liver, lesion: hepatocellular adenoma, dosed 92 weeks, study length 92 weeks): 5770 mg/kg/day | TD50 (rat, strain Charles River CD (Sprague-Dawley), females, in feed, site: liver, lesion: hepatocellular adenoma, dosed 104 weeks, study length 104 weeks): 934 mg/kg/day | carcinogen call (rat, strain Charles River CD (Sprague-Dawley), females, in feed, site: liver, lesion: one or several types, types not named, dosed 52 weeks, study length 52 weeks): negative (inactive) | carcinogen call (rat, strain Charles River CD (Sprague-Dawley), males, in feed, site: liver, lesion: one or several types, types not named, dosed 52 weeks, study length 52 weeks): negative (inactive) | TD50 (rat, strain Charles River CD (Sprague-Dawley), males, in feed, site: liver, lesion: several types, types named in the paper, dosed 104 weeks, study length 104 weeks): 9780 mg/kg/day | TD50 (rat, strain Charles River CD (Sprague-Dawley), males, in feed, site: testis, lesion: interstitial-cell tumor, dosed 104 weeks, study length 104 weeks): 1310 mg/kg/day

N#CN
TD50 (mouse, strain B6AKF1, males, oral dosing, site: liver, lesion: hepatoma, dosed 76 weeks, study length 76 weeks): 191 mg/kg/day | TD50 (mouse, strain B6C3F1, females, in feed, site: all sites, lesion: leukemia + lymphoma, dosed 100 weeks, study length 100 weeks): 478 mg/kg/day (inactive) | TD50 (mouse, strain B6C3F1, females, in feed, site: lung, lesion: alveolar/bronchiolar adenoma + alveolar/bronchiolar carcinoma, dosed 100 weeks, study length 100 weeks): 4040 mg/kg/day | TD50 (mouse, strain B6C3F1, females, oral dosing, site: any site (literature study), lesion: several types, types named in the paper, dosed 76 weeks, study length 76 weeks): 68 mg/kg/day | TD50 (mouse, strain B6C3F1, males, in feed, site: all sites, lesion: hemangiosarcoma, dosed 100 weeks, study length 100 weeks): 766 mg/kg/day (inactive) | TD50 (mouse, strain B6C3F1, males, in feed, site: any site (literature study), lesion: several types, types named in the paper, dosed 100 weeks, study length 100 weeks): 909 mg/kg/day | TD50 (mouse, strain B6C3F1, males, oral dosing, site: all sites, lesion: reticulum-cell sarcoma, dosed 76 weeks, study length 76 weeks): 30.9 mg/kg/day | TD50 (mouse, strain B6C3F1, males, oral dosing, site: any site (literature study), lesion: several types, types named in the paper, dosed 76 weeks, study length 76 weeks): 16.7 mg/kg/day | TD50 (mouse, strain B6C3F1, males, oral dosing, site: liver, lesion: hepatoma, dosed 76 weeks, study length 76 weeks): 55.7 mg/kg/day | TD50 (rat, strain Fischer 344, females, in feed, site: any site (literature study), lesion: several types, types named in the paper, dosed 107 weeks, study length 107 weeks): 267 mg/kg/day (inactive) | TD50 (rat, strain Fischer 344, males, in feed, site: all sites, lesion: leukemia + lymphoma + neoplasm, NOS, dosed 107 weeks, study length 107 weeks): 7.45 mg/kg/day (inactive)

CCCN(CCC)N=O
TD50 (monkey, strain Rhesus [Macaca mulatta], both sexes, i.p., site: any site (literature study), lesion: malignant tumor, dosed 133 weeks, study length 133 weeks): 0.0121 mg/kg/day | TD50 (monkey, strain Rhesus [Macaca mulatta], both sexes, i.p., site: liver, lesion: hepatocellular carcinoma, dosed 133 weeks, study length 133 weeks): 0.0121 mg/kg/day | TD50 (rat, strain Fischer 344, females, by gavage, site: esophagus, lesion: several types, types named in the paper, dosed 30 weeks, study length 60 weeks): 0.505 mg/kg/day | TD50 (rat, strain Fischer 344, females, by gavage, site: liver, lesion: hepatocellular carcinoma, dosed 30 weeks, study length 60 weeks): 0.186 mg/kg/day | TD50 (rat, strain Fischer 344, females, by gavage, site: nasal cavity, lesion: carcinoma, dosed 30 weeks, study length 60 weeks): 0.186 mg/kg/day

NC(Cc1c[nH]c2ccccc12)C(=O)O (stereo not given)
carcinogen call (rat, strain Fischer, males, in feed, site: liver, lesion: one or several types, types not named, dosed 98 weeks, study length 98 weeks): negative (inactive) | carcinogen call (rat, strain Fischer, males, in feed, site: urinary bladder, lesion: one or several types, types not named, dosed 98 weeks, study length 98 weeks): negative (inactive)
